The first assay has as its target S. aureus (SAU) GyrB ATPase (Staphylococcus aureus, UniProt P0A0K8). Put plainly: S. aureus GyrB ATPase inhibition, ammonium molybdate/malachite green phosphate detection assay. The format is biochemical. As to conditions: compound concentration 5 μM (values marked *). On the procedure:
Compounds were tested for inhibition of GyrB ATPase activity using an ammonium molybdate/malachite green-based phosphate detection assay (Lanzetta, P. A., L. J. Alvarez, P. S. Reinach, and O. A. Candia, 1979, 100: 95-97). Assays were performed in multiwell plates in 100 μl reactions containing: 50 mM Hepes buffer pH 7.5, 75 mM ammonium acetate, 8.0 mM magnesium chloride, 1.0 mM ethylenediaminetetraacetic acid, 5% glycerol, 2 mM 1,4-Dithio-DL-threitol, 400 nM bovine serum albumin, 5 μg/ml sheared salmon sperm DNA, 1.25 nM E. coli GyrA, 1.25 nM S. aureus GyrB, 500 μM ATP, and compound in dimethylsulfoxide. Reactions were quenched with 150 μl of ammonium molybdate/malachite green detection reagent containing 1.2 mM malachite green hydrochloride, 8.5 mM ammonium molybdate tetrahydrate, and 1 M hydrochloric acid. Plates were read in an absorbance plate reader at 650 nm and percent inhibition values were calculated using dimethylsulfoxide (2%)-containing reactions as 0% inhibition and novobiocin-containing (2 μM) reactions as 100% inhibition controls. Compound potency was based on IC50 measurements determined from reactions performed in the presence of 10 different compound concentrations.
S. aureus (SAU) GyrB ATPase, sequence (P0A0K8 whole entry): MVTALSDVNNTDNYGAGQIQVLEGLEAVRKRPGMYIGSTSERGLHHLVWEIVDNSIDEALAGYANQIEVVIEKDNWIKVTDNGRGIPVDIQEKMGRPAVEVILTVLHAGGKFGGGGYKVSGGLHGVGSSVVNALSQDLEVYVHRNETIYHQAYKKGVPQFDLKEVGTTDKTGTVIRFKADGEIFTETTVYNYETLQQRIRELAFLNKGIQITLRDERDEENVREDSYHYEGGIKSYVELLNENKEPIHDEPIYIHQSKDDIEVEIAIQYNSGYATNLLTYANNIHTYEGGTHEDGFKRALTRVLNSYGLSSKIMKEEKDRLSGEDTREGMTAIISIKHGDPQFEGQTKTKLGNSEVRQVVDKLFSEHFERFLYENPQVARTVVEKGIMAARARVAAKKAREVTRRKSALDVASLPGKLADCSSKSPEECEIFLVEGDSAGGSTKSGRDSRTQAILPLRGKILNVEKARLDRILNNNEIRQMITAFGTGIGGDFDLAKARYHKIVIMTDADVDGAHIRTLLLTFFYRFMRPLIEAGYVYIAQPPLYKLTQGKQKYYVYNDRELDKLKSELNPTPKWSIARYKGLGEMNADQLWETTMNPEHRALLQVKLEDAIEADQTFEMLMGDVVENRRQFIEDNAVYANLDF
S. aureus (SAU) GyrB ATPase, sequence (P0AES4 whole entry, further chain): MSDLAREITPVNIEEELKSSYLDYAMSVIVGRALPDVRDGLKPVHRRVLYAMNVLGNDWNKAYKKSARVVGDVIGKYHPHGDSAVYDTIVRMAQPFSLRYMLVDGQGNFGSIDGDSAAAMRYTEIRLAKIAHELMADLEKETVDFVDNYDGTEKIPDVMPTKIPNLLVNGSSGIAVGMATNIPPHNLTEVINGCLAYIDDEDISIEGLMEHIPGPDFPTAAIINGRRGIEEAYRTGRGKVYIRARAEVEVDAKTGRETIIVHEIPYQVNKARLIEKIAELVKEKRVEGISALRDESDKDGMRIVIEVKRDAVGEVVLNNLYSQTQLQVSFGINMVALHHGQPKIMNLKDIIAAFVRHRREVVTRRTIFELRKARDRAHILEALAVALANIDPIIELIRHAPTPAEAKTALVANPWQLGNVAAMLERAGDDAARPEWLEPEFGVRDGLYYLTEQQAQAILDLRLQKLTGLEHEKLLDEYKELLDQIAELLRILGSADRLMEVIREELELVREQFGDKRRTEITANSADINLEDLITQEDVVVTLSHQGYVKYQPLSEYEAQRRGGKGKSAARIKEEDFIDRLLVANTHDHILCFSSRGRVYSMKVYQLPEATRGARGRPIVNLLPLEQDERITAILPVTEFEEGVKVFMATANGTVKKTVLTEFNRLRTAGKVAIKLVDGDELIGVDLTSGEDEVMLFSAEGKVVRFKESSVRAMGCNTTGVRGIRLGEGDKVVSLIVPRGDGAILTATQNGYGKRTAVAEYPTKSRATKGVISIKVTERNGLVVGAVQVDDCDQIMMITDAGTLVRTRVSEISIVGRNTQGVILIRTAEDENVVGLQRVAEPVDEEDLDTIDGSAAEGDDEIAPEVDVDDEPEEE
Turning to `CCNC(=O)Nc1ncc(-c2ncc(C(=O)OC)s2)cn1` [Example 14, Methyl 2-(2-{[(ethylamino)carbonyl]amino}pyrimidin-5-yl)-1,3-thiazole-5-carboxylate], the inhibition at 5 µM was determined as 99.5%.

Staying with this assay, now noted: compound concentration 12.5 μM; 12.5 µM.
Regarding `CCNC(=O)Nc1ccc(-c2nc(-c3ncnn3C)c(C(=O)O)s2)cn1` [Example 90, 2-(6-{[(Ethylamino)carbonyl]amino}pyridin-3-yl)-4-(1-methyl-1H-1,2,4-triazol-5-yl)-1,3-thiazole-5-carboxylic acid], the “S. aureus (SAU) GyrB ATPase % Inhibition” value worked out at 19.71%.

The assay is the same for the next values; noted with them: read-out: S. aureus (SAU) GyrB ATPase % Inhibition, compound concentration 12.5 μM.
On to `CCNC(=O)Nc1ccc(-c2ccc3c(c2)c(=O)c(C(=O)O)cn3CC(F)F)cn1` [Example 49, 1-(2,2-difluoroethyl)-6-(6-(3-ethylureido)pyridin-3-yl)-4-oxo-1,4-dihydroquinoline-3-carboxylic acid], for which the inhibition at 12.5 µM is 37.8%.

As for `CC(C)NC(=O)Nc1cc(-c2nc(C(F)(F)F)cs2)c(-c2cncc(C(=O)O)c2)cn1` [Example 105, 6′-{[(Isopropylamino)arbonyl]amino}-4′-[4-(trifluoromethyl)-1,3-thiazol-2-yl]-3,3′-bipyridine-5-carboxylic acid], the inhibition at 12.5 µM was 94.8%.

`CCNC(=O)Nc1ccc(-c2nc(C(=O)NC(C)(C)C)c(C(=O)O)s2)cn1` [Example 94, 4-[(tert-Butylamino)carbonyl]-2-(6-{[(ethylamino)carbonyl]amino}pyridin-3-yl)-1,3-thiazole-5-carboxylic acid]: the inhibition at 12.5 µM is 98.9%.

`CCNC(=O)Nc1cccc(-c2cccc(C(N)=O)c2)n1` [Example 151, 3-(6-{[(ethylamino)carbonyl]amino}pyridin-2-yl)benzamide]: the inhibition at 12.5 µM was 97.7%.

`CCNC(=O)Nc1cc(-c2nc(C(F)(F)F)cs2)c(-c2cncc(C(=O)NC3CCCC3)c2)cn1` [Example 125, N-Cyclopentyl-6′-{[(ethylamino)carbonyl]amino}-4′-[4-(trifluoromethyl)-1,3-thiazol-2-yl]-3,3′-bipyridine-5-carboxamide]: the inhibition at 12.5 µM came out at 107%.

With `CCNC(=O)Nc1ccc(-c2cncc(C(=O)OCC)c2)cn1` [Example 3, Ethyl 6′-{[(ethylamino)carbonyl]amino}-3,3′-bipyridine-5-carboxylate], the inhibition at 12.5 µM stood at 55%.

With `CCNC(=O)Nc1ccc(-c2nc(C(=O)N(C)C)c(C(=O)O)s2)cn1` [Example 149, 4-[(dimethylamino)carbonyl]-2-(6-{[(ethylamino)carbonyl]amino}pyridin-3-yl)-1,3-thiazole-5-carboxylic acid], the inhibition at 12.5 µM was 97.5%.

With `CCNC(=O)Nc1cc(-c2nc(CC)cs2)c(-c2cncc(C(=O)N(C)C)c2)cn1` [Example 161, 6′-{[(ethylamino)carbonyl]amino}-4′-(4-ethyl-1,3-thiazol-2-yl)-N,N-dimethyl-3,3′-bipyridine-5-carboxamide], the inhibition at 12.5 µM stood at 101%.

In the case of `CCNC(=O)Nc1ccc(-c2nc(C(=O)N[C@@H](C)COC)c(C(=O)N(C)C)s2)cn1` [Example 118, 2-(6-{[(Ethylamino)carbonyl]amino}pyridin-3-yl)-N^4-[(1S)-2-methoxy-1-methylethyl]-N^5,N^5-dimethyl-1,3-thiazole-4,5-dicarboxamide], the inhibition at 12.5 µM came out at 102%.

On to `CCNC(=O)Nc1ccc(-c2nc(C(=O)N(C)C)c(C(=O)N(C)C)s2)cn1` [Example 57, 2-[6-(3-Ethyl-ureido)-pyridin-3-yl]-thiazole-4,5-dicarboxylic acid bis-dimethylamide], for which the inhibition at 12.5 µM was determined as 80.1%.

As for `CCNC(=O)Nc1ncc(-c2nc3cccc(C(=O)OCC)c3s2)cn1` [Example 135, ethyl 2-(2-{[(ethylamino)carbonyl]amino}pyrimidin-5-yl)-1,3-benzothiazole-7-carboxylate], the inhibition at 12.5 µM is 0.52%.

In the case of `CCNC(=O)Nc1ccc(-c2ccc3nc(C)c(C(N)=O)n3c2)cn1` [Example 155, 6-(6-{[(ethylamino)carbonyl]amino}pyridin-3-yl)-2-methylimidazo[1,2-a]pyridine-3-carboxamide], the inhibition at 12.5 µM was 82.3%.

On to `CCCCNC(=O)c1sc(-c2ccc(NC(=O)NCC)nc2)nc1C(=O)N(C)C` [Example 158, N^5-butyl-2-(6-{[(ethylamino)carbonyl]amino}pyridin-3-yl)-N^4,N^4-dimethyl-1,3-thiazole-4,5-dicarboxamide], for which the inhibition at 12.5 µM was 92.6%.

Take `CCNC(=O)Nc1cc(-c2ccc(F)nc2)c(-c2cncc(C(=O)O)c2)cn1` [Example 104]: the inhibition at 12.5 µM was 89.9%.

On to `CCNC(=O)Nc1ccc(-c2ccc(C(=O)O)cn2)cn1` [Example 21, 6′-{[(Ethylamino)carbonyl]amino}-2,3′-bipyridine-5-carboxylic acid], for which the inhibition at 12.5 µM worked out at 77.1%.

On to `CCCCNC(=O)c1nc(-c2ccc(NC(=O)NCC)nc2)sc1C(=O)NC` [Example 108, N^4-Butyl-2-(6-{[(ethylamino)carbonyl]amino}pyridin-3-yl)-N^5-methyl-1,3-thiazole-4,5-dicarboxamide], for which the inhibition at 12.5 µM came out at 100%.

Take `CCNC(=O)Nc1cc(-c2ccccc2)c(-c2ncc(C(=O)O)s2)cn1` [Example 97, 2-(6-{[(Ethylamino)carbonyl]amino}-4-phenylpyridin-3-yl)-1,3-thiazole-5-carboxylic acid]: the inhibition at 12.5 µM turned out to be 101%.

With `CCNC(=O)Nc1cc(-c2ccc(C(=O)O)cc2)ccn1` [Example 144, 4-(2-{[(ethylamino)carbonyl]amino}pyridin-4-yl)benzoic acid], the inhibition at 12.5 µM was 38.6%.

`CCNC(=O)Nc1cc(-c2ccccc2)c(-c2cccc(C(=O)O)c2)cn1` [Example 96, 3-(6-{[(Ethylamino)carbonyl]amino}-4-phenylpyridin-3-yl)benzoic acid]: the inhibition at 12.5 µM was found to be 95.4%.

On to `CCNC(=O)Nc1ccc(-c2cccc(C(=O)O)c2)cn1` [Example 22, 3-(6-{[(Ethylamino)carbonyl]amino}pyridin-3-yl)benzoic acid], for which the inhibition at 12.5 µM was determined as 99.7%.

For the compound `CCNC(=O)Nc1cc(-c2nc(CC)cs2)c(-c2cncc(C(=O)NC)c2)cn1` [Example 107, 6′-{[(Ethylamino)carbonyl]amino}-4′-(4-ethyl-1,3-thiazol-2-yl)-N-methyl-3,3′-bipyridine-5-carboxamide], the inhibition at 12.5 µM worked out at 84%.

Turning to `CCNC(=O)Nc1cc(-c2cncc(F)c2)c(-c2cncc(C(=O)O)c2)cn1` [Example 69, 6′-{[(Ethylamino)carbonyl]amino}-5″-fluoro-3,3′:4′,3″-terpyridine-5-carboxylic acid], the inhibition at 12.5 µM amounted to 88.5%.

Regarding `CCNC(=O)Nc1ccc(-c2nc(C(=O)NCC)c(C(=O)N(C)C)s2)cn1` [Example 61, 2-[6-(3-Ethyl-ureido)-pyridin-3-yl]-thiazole-4,5-dicarboxylic acid 5-dimethylamide 4-ethylamide], the inhibition at 12.5 µM was 92.8%.

On to `CCNC(=O)Nc1ncc(-c2cccc(C(=O)OC)c2)cn1` [Example 13, Methyl 3-(2-{[(ethylamino)carbonyl]amino}pyrimidin-5-yl)benzoate], for which the inhibition at 12.5 µM stood at 99%.

On to `CCNC(=O)Nc1cc(-c2ccc(C(=O)OCC)cc2)ccn1` [Example 138, ethyl 4-(2-{[(ethylamino)carbonyl]amino}pyridin-4-yl)benzoate], for which the inhibition at 12.5 µM is 94.8%.

With `CCNC(=O)Nc1ccc(-c2ccc3nc(C(=O)OC)cn3c2)cn1` [Example 12, Methyl 6-(6-{[(ethylamino)carbonyl]amino}pyridin-3-yl)imidazo[1,2-a]pyridine-2-carboxylate], the inhibition at 12.5 µM came to 92.6%.

Take `CCNC(=O)Nc1ccc(-c2nc(C(=O)NC(C)(C)C)c(C(=O)N(C)C)s2)cn1` [Example 110, N^4-(tert-Butyl)-2-(6-{[(ethylamino)carbonyl]amino}pyridin-3-yl)-N^5,N^5-dimethyl-1,3-thiazole-4,5-dicarboxamide]: the inhibition at 12.5 µM was determined as 101%.

Take `CCNC(=O)Nc1ccc(-c2ccc3nc(C)c(C(=O)O)n3c2)cn1` [Example 148, 6-(6-{[(ethylamino)carbonyl]amino}pyridin-3-yl)-2-methylimidazo[1,2-a]pyridine-3-carboxylic acid]: the inhibition at 12.5 µM was 94.2%.

`CCNC(=O)Nc1nc(-c2cccc(C(=O)OC)c2)cs1` [Example 134, methyl 3-(2-{[(ethylamino)carbonyl]amino}-1,3-thiazol-4-yl)benzoate]: the inhibition at 12.5 µM turned out to be 7.09%.

With `CCNC(=O)Nc1ccc(-c2ncc(C(=O)OC)s2)cn1` [Example 1, Methyl 2-(6-{[(ethylamino)carbonyl]amino}pyridin-3-yl)-1,3-thiazole-5-carboxylate], the inhibition at 12.5 µM stood at 3.02%.

As for `CCC(C)NC(=O)Nc1cc(-c2nc(C(F)(F)F)cs2)c(-c2cncc(C(=O)O)c2)cn1` (stereo not shown) [Example 106, 6′-{[(Sec-butylamino)carbonyl]amino}-4′-[4-(trifluoromethyl)-1,3-thiazol-2-yl]-3,3′-bipyridine-5-carboxylic acid], the inhibition at 12.5 µM came to 93.1%.

In the case of `CCNC(=O)Nc1ccc(-c2nc(C(=O)NC(C)(C)C)c(C(=O)OCC)s2)cn1` [Example 76, Ethyl 4-[(tert-butylamino)carbonyl]-2-(6-{[(ethylamino)carbonyl]amino}pyridin-3-yl)-1,3-thiazole-5-carboxylate], the inhibition at 12.5 µM was 88.2%.

The values above are taken from patent US7674801B2 (AstraZeneca AB, priority 2006, dated 2010).
